Test results published in the NIST ThermoML archive (doi:10.1016/j.jct.2010.03.002).
Numbers after ± are expanded uncertainties.

Experiment: xn = mol fraction of the nth substance listed
Conditions: 101 kPa, Liquid; for viscosity: Capillary tube (Ostwald / Ubbelohde) method; for mass density: Vibrating tube method

CCCCCCn1cc[n+](C)c1.[Br-] [3-hexyl-1-methyl-1H-imidazolium bromide] + O
Conditions | mass density, 293.15 K [kg/m3] | mass density, 303.15 K [kg/m3] | mass density, 313.15 K [kg/m3] | mass density, 323.15 K [kg/m3] | mass density, 333.15 K [kg/m3] | viscosity, 293.15 K [mPa·s] | viscosity, 303.15 K [mPa·s] | viscosity, 313.15 K [mPa·s] | viscosity, 323.15 K [mPa·s] | viscosity, 333.15 K [mPa·s]
x2 = 0 | 1227.4 ± 1.7 | 1220.1 ± 1.7 | 1213.3 ± 1.7 | 1205.7 ± 1.7 | 1198.6 ± 1.6 | 6936 ± 750 | 2239 ± 200 | 851.65 ± 56 | 512.14 ± 27 | 350.69 ± 16
x2 = 0.1225 | 1223.4 ± 1.4 | 1216.1 ± 1.4 | 1209.3 ± 1.3 | 1201.8 ± 1.3 | 1194.6 ± 1.3 | 3519 ± 330 | 1255 ± 94 | 503.66 ± 27 | 302.69 ± 13 | 201.69 ± 6.7
x2 = 0.2196 | 1220.4 ± 1.1 | 1213.2 ± 1.1 | 1206.4 ± 1.1 | 1198.8 ± 1.1 | 1191.5 ± 1.1 | 1578 ± 120 | 695.45 ± 42 | 320.14 ± 14 | 180.56 ± 5.7 | 115.66 ± 2.6
x2 = 0.2978 | 1217.9 ± 1 | 1210.8 ± 1 | 1204 ± 0.9 | 1196.2 ± 0.9 | 1189 ± 0.9 | 776.62 ± 48 | 395.49 ± 19 | 194.1 ± 6.6 | 117.64 ± 2.7 | 77.41 ± 1.2
x2 = 0.348 | 1216.3 ± 0.9 | 1209 ± 0.9 | 1202.2 ± 0.8 | 1194.6 ± 0.8 | 1187.4 ± 0.8 | 507.8 ± 27 | 265.62 ± 11 | 143.5 ± 3.9 | 89.65 ± 1.6 | 57.52 ± 0.74
x2 = 0.4166 | 1213.4 ± 0.7 | 1206.2 ± 0.7 | 1199.5 ± 0.7 | 1192 ± 0.7 | 1184.8 ± 0.7 | 313.52 ± 13 | 168.31 ± 5.1 | 97.98 ± 1.9 | 60.85 ± 0.76 | 40.03 ± 0.5
x2 = 0.504 | 1208.7 ± 0.6 | 1201.6 ± 0.6 | 1194.9 ± 0.6 | 1187.5 ± 0.6 | 1180.3 ± 0.6 | 173.73 ± 5.2 | 98.93 ± 2 | 60.18 ± 0.75 | 38.59 ± 0.46 | 26.69 ± 0.31
x2 = 0.5701 | 1203.9 ± 0.5 | 1196.8 ± 0.5 | 1190.1 ± 0.5 | 1182.7 ± 0.5 | 1175.8 ± 0.5 | 111.42 ± 2.3 | 65.77 ± 0.89 | 41.24 ± 0.49 | 27.69 ± 0.3 | 19.36 ± 0.21
x2 = 0.6405 | 1196.9 ± 0.4 | 1189.9 ± 0.4 | 1183.3 ± 0.4 | 1176 ± 0.4 | 1169 ± 0.4 | 70.83 ± 0.91 | 43.45 ± 0.53 | 28.14 ± 0.31 | 19.39 ± 0.19 | 14.63 ± 0.15
x2 = 0.7285 | 1184.3 ± 0.3 | 1177.3 ± 0.3 | 1170.7 ± 0.3 | 1163.5 ± 0.3 | 1156.5 ± 0.3 | 36.4 ± 0.45 | 22.54 ± 0.26 | 15.13 ± 0.16 | 10.75 ± 0.1 | 7.929 ± 0.067
x2 = 0.816 | 1163.7 ± 0.2 | 1156.9 ± 0.2 | 1150.1 ± 0.2 | 1142.9 ± 0.2 | 1136.3 ± 0.2 | 18.13 ± 0.2 | 12.1 ± 0.13 | 8.492 ± 0.076 | – | 4.762 ± 0.058
x2 = 0.9048 | 1123.6 ± 0.2 | 1117.3 ± 0.2 | 1110.7 ± 0.2 | 1104.4 ± 0.2 | 1097.6 ± 0.2 | 6.655 ± 0.059 | 4.764 ± 0.047 | 3.519 ± 0.033 | 2.744 ± 0.025 | 2.184 ± 0.02
x2 = 0.9241 | 1109.4 ± 0.2 | 1103.6 ± 0.2 | 1097 ± 0.2 | 1090.9 ± 0.1 | 1084.2 ± 0.1 | 4.951 ± 0.046 | 3.619 ± 0.035 | 2.764 ± 0.025 | 2.165 ± 0.019 | 1.733 ± 0.016
x2 = 0.944 | 1091.2 ± 0.1 | 1085.4 ± 0.1 | 1079.5 ± 0.1 | 1073.6 ± 0.1 | 1067.2 ± 0.1 | 3.48 ± 0.032 | 2.622 ± 0.023 | – | 1.6 ± 0.016 | 1.301 ± 0.012
x2 = 0.9613 | 1070.9 ± 0.1 | 1065.7 ± 0.1 | 1060.4 ± 0.1 | 1054.7 ± 0.1 | 1048.5 ± 0.1 | 2.438 ± 0.023 | 1.86 ± 0.017 | 1.469 ± 0.012 | – | 0.982 ± 0.013
x2 = 0.9899 | 1022.6 ± 0.1 | 1019.2 ± 0.1 | 1015.1 ± 0.1 | 1010.1 ± 0.1 | 1004.2 ± 0.1 | 1.342 ± 0.014 | 1.047 ± 0.01 | 0.846 ± 0.008 | 0.695 ± 0.006 | 0.588 ± 0.006
